Assay results published in US5633382A, “Histamine H3 -receptor antagonists and therapeutic uses thereof” (The University of Toledo, priority 1994, dated 1997).

Tests used:
[1] = Behavioral effects (sleeping) after i.p. injection in mice; type: in vivo, mouse
[2] = tested on: H3 receptors in the cortex; test: Blood-brain barrier penetration by ex vivo binding of [3H]-Nα-methylhistamine to cortex homogenate; type: in vivo, rat
Experimental: Blood-brain barrier penetration in rats was assessed by an ex vivo binding procedure. Young adult male Long-Evans rats were injected i.p. with saline or H3 antagonists in saline. At various times after injection animals were sacrificed, the cortex was removed, homogenized in 50 mM Na/K-phosphate buffer, pH 7.4, and the binding of 1 nM [^3 H]-N^α -methylhistamine was measured using 400 μg protein of the homogenate. Nonspecific binding was accounted for by the inclusion of excess thioperamide in some samples. Under these conditions, the binding was approximately 90% specific.

histamine H3 -receptor = test: Reversal of the soporific effect of (R)α-methylhistamine in mice; type: in vivo, mouse
Experimental: The overall strategy to show central nervous system antagonist activity was to challenge effects of the agonist (R)α-methylhistamine. Therefore, the first objective was to establish a dose response curve for behavioral effects of (R)α-methylhistamine. Male albino CF-1 mice weighing 20-30 g were used. Saline or (R)α-methylhistamine in saline was injected i.p. in a volume ≤0.4 ml. […] Animals were scored for the presence (1) or absence (0) of the behavior and the results were reported as the accumulated score for a 30 minute period (maximum score=9).
To assess the effects of antagonists, they were administered with the (R)α-methylhistamine in saline.

[3] = Toxicity observed in testing to date; type: in vivo; conditions: all testing to date, even at high doses
[4] = tested on: adenosine, excitory or inhibitory amino acid, dopamine, serotonin, or a broad range of petidergic receptors, or to ion channel proteins, peptide factor or …; test: NOVASCREEN receptor selectivity study, panel as a whole; type: binding; conditions: 10^-5 M
ANF (rat) = test: NOVASCREEN receptor selectivity assay; type: binding; conditions: 10^-5 M
Excerpt: (§1) represent the average of duplicate tubes at each of the concentrations

Adenosine = test: NOVASCREEN receptor selectivity assay; type: binding; conditions: 10^-5 M
Excerpt: as §1

[5] = tested on: Adenylate Cyclase (Forskolin); test: NOVASCREEN receptor selectivity assay; type: binding; conditions: 10^-5 M
Excerpt: as §1

Angiotensin = test: NOVASCREEN receptor selectivity assay; type: binding; conditions: 10^-5 M
Excerpt: as §1

Arg-Vasopressin V1 = test: NOVASCREEN receptor selectivity assay; type: binding; conditions: 10^-5 M
Excerpt: as §1

Benzodiazephine = test: NOVASCREEN receptor selectivity assay; type: binding; conditions: 10^-5 M
Excerpt: as §1

Bombesin = test: NOVASCREEN receptor selectivity assay; type: binding; conditions: 10^-5 M
Excerpt: as §1

CCK Central = test: NOVASCREEN receptor selectivity assay; type: binding; conditions: 10^-5 M
Excerpt: as §1

CCK Peripheral = test: NOVASCREEN receptor selectivity assay; type: binding; conditions: 10^-5 M
Excerpt: as §1

[6] = tested on: Calcium channel (Nifedipine); test: NOVASCREEN receptor selectivity assay; type: binding; conditions: 10^-5 M
Excerpt: as §1

Chloride channel = test: NOVASCREEN receptor selectivity assay; type: binding; conditions: 10^-5 M
Excerpt: as §1

Dopamine 1 = test: NOVASCREEN receptor selectivity assay; type: binding; conditions: 10^-5 M
Excerpt: as §1

Dopamine 2 = test: NOVASCREEN receptor selectivity assay; type: binding; conditions: 10^-5 M
Excerpt: as §1

EGF = test: NOVASCREEN receptor selectivity assay; type: binding; conditions: 10^-5 M
Excerpt: as §1

GABAA = test: NOVASCREEN receptor selectivity assay; type: binding; conditions: 10^-5 M
Excerpt: as §1

GABAB = test: NOVASCREEN receptor selectivity assay; type: binding; conditions: 10^-5 M
Excerpt: as §1

Glycine (Inhibitory) = test: NOVASCREEN receptor selectivity assay; type: binding; conditions: 10^-5 M
Excerpt: as §1

Glycine (excitatory) = test: NOVASCREEN receptor selectivity assay; type: binding; conditions: 10^-5 M
Excerpt: as §1

Inositol Triphosphate = test: NOVASCREEN receptor selectivity assay; type: binding; conditions: 10^-5 M
Excerpt: as §1

Kainate = test: NOVASCREEN receptor selectivity assay; type: binding; conditions: 10^-5 M
Excerpt: as §1

MK-801 = test: NOVASCREEN receptor selectivity assay; type: binding; conditions: 10^-5 M
Excerpt: as §1

NGF = test: NOVASCREEN receptor selectivity assay; type: binding; conditions: 10^-5 M
Excerpt: as §1

NMDA = test: NOVASCREEN receptor selectivity assay; type: binding; conditions: 10^-5 M
Excerpt: as §1

NPY = test: NOVASCREEN receptor selectivity assay; type: binding; conditions: 10^-5 M
Excerpt: as §1

Neurotensin = test: NOVASCREEN receptor selectivity assay; type: binding; conditions: 10^-5 M
Excerpt: as §1

PCP = test: NOVASCREEN receptor selectivity assay; type: binding; conditions: 10^-5 M
Excerpt: as §1

Potassium channel = test: NOVASCREEN receptor selectivity assay; type: binding; conditions: 10^-5 M
Excerpt: as §1

[7] = tested on: Protein Kinase C (Phorbol Ester); test: NOVASCREEN receptor selectivity assay; type: binding; conditions: 10^-5 M
Excerpt: as §1

[8] = tested on: Quisqualate (Excitatory Amino Acids); test: NOVASCREEN receptor selectivity assay; type: binding; conditions: 10^-5 M
Excerpt: as §1

Serotonin 1 = test: NOVASCREEN receptor selectivity assay; type: binding; conditions: 10^-5 M
Excerpt: as §1

Serotonin 2 = test: NOVASCREEN receptor selectivity assay; type: binding; conditions: 10^-5 M
Excerpt: as §1

Somatostatin = test: NOVASCREEN receptor selectivity assay; type: binding; conditions: 10^-5 M
Excerpt: as §1

Substance K = test: NOVASCREEN receptor selectivity assay; type: binding; conditions: 10^-5 M
Excerpt: as §1

Substance P = test: NOVASCREEN receptor selectivity assay; type: binding; conditions: 10^-5 M
Excerpt: as §1

VIP = test: NOVASCREEN receptor selectivity assay; type: binding; conditions: 10^-5 M
Excerpt: as §1

[9] = tested on: Calcium channel (w-Conotoxin); type: binding; conditions: 10^-5 M
histamine H3 receptors = conditions: cited from earlier work
[10] = animal toxicity studies or clinical usage; cited from earlier work
[11] = dogs, 162 mg/kg/day, repeated dose; cited from earlier work
[12] = peptic ulcer patients; cited from earlier work

C[C@@H](N)Cc1c[nH]cn1 [(R)α-methylhistamine]
sleeping ([1]; i.p. 15 to 35 mg/kg, one hour after injection, also evident at 30 minutes): dose-dependent (range of 15 to 35 mg/kg) increase in sleeping

O=C(CCCCC1CCCCC1)N1CCC(c2c[nH]cn2)CC1 [Compound 1, 4-(1-CYCLOHEXYLVALEROYL-4-PIPERIDYL) 1H-IMIDAZOLE]
blood-brain barrier penetration ([2]; i.p. 50 and 70 mg/kg, one hour after injection): penetrates the blood-brain barrier
inhibition of soporific effect of (R)α-methylhistamine (histamine H3 -receptor; agonist 25 mg/kg): inhibited the soporific effect
toxicity [3]: no toxicity
significant binding to other receptors [4]: no significant binding
Initial Percent Inhibition (Average; N = 2) (ANF (rat)): 0.1%
Initial Percent Inhibition (Average; N = 2) (Adenosine): -3.0%
Initial Percent Inhibition (Average; N = 2) [5]: 2.1%
Initial Percent Inhibition (Average; N = 2) (Angiotensin): 6.5%
Initial Percent Inhibition (Average; N = 2) (Arg-Vasopressin V1): 10.1%
Initial Percent Inhibition (Average; N = 2) (Benzodiazephine): 2.7%
Initial Percent Inhibition (Average; N = 2) (Bombesin): -5.5%
Initial Percent Inhibition (Average; N = 2) (CCK Central): 18.6%
Initial Percent Inhibition (Average; N = 2) (CCK Peripheral): 6.9%
Initial Percent Inhibition (Average; N = 2) [6]: 8.1%
Initial Percent Inhibition (Average; N = 2) (Chloride channel): -3.4%
Initial Percent Inhibition (Average; N = 2) (Dopamine 1): 6.4%
Initial Percent Inhibition (Average; N = 2) (Dopamine 2): 3.5%
Initial Percent Inhibition (Average; N = 2) (EGF): 18.1%
Initial Percent Inhibition (Average; N = 2) (GABAA): 0.6%
Initial Percent Inhibition (Average; N = 2) (GABAB): 0.0%
Initial Percent Inhibition (Average; N = 2) (Glycine (Inhibitory)): 17.4%
Initial Percent Inhibition (Average; N = 2) (Glycine (excitatory)): 1.8%
Initial Percent Inhibition (Average; N = 2) (Inositol Triphosphate): 9.2%
Initial Percent Inhibition (Average; N = 2) (Kainate): 42.1%
Initial Percent Inhibition (Average; N = 2) (MK-801): -8.6%
Initial Percent Inhibition (Average; N = 2) (NGF): 17.1%
Initial Percent Inhibition (Average; N = 2) (NMDA): -4.5%
Initial Percent Inhibition (Average; N = 2) (NPY): -8.7%
Initial Percent Inhibition (Average; N = 2) (Neurotensin): -10.5%
Initial Percent Inhibition (Average; N = 2) (PCP): 9.7%
Initial Percent Inhibition (Average; N = 2) (Potassium channel): 7.7%
Initial Percent Inhibition (Average; N = 2) [7]: 0.9%
Initial Percent Inhibition (Average; N = 2) [8]: -1.8%
Initial Percent Inhibition (Average; N = 2) (Serotonin 1): -3.6%
Initial Percent Inhibition (Average; N = 2) (Serotonin 2): 10.5%
Initial Percent Inhibition (Average; N = 2) (Somatostatin): 4.1%
Initial Percent Inhibition (Average; N = 2) (Substance K): 29.2%
Initial Percent Inhibition (Average; N = 2) (Substance P): 20.0%
Initial Percent Inhibition (Average; N = 2) (VIP): 17.1%
Initial Percent Inhibition (Average; N = 2) [9]: 1.9%

O=C(CCCCC1CCCCC1)N1CCC(c2c[nH]cn2)CC1 [Compound 2016]
reversal of soporific effect of R(-)-alphamethylhistamine (histamine H3 -receptor; both drugs administered peripherally): reverses the soporific effect

S=C(NC1CCCCC1)N1CCC(c2cnc[nH]2)CC1 [Thioperamide]
binding of [3H]-Nα-methylhistamine to cortical H3 receptors / blood-brain barrier penetration ([2]; i.p. 2, 5, and 10 mg/kg, 15 min after injection): decreased the binding of [^3 H]-Nα-methylhistamine to H3 receptors in the cortex
behavior ([1]; thioperamide alone, without agonist): very active, exhibiting normal behaviors
inhibition of soporific effect of (R)α-methylhistamine (histamine H3 -receptor; agonist 30 mg/kg): able to inhibit the soporific effect
dose required to inhibit histamine release from the brain (histamine H3 receptors; rats): relatively high doses are required in vivo
blood-brain-barrier penetration (histamine H3 receptors; suggested by Ganellin et al.): poor penetration through the blood-brain-barrier

CN/C(=N/CCSCc1nc[nH]c1C)NC#N [cimetidine]
granulocytopenia or other side effects [10]: did not cause granulocytopenia, or any other side effects

C/N=C(\S)NCCSCc1[nH]cnc1C [metiamide]
agranulocytosis [11]: incidences of agranulocytosis
granulocytopenia [12]: low incidence of granulocytopenia
